# Publication PMC10747736, “In Vitro Activities of Dithiocarbamate Derivatives against Echinococcus multilocularis Metacestode Vesicles” (Tropical Medicine and Infectious Disease, 2023)
# Test system: E. multilocularis metacestode vesicles
# Test: PGI assay (damage marker release) with metacestode vesicles
# Type: cell-based, Echinococcus multilocularis
# Parameters: key: Active: Compounds were considered active when they reached 20% of PGI release relative to Triton X-100; Not active: Compounds were considered active when they reached 20% of PGI release relative to Triton X-100
# Details: overview screen at 10 µM, five days, 20% cut-off relative to Triton X-100
# Procedure: In order to screen disulfiram and dithiocarbamate derivatives as potential new drug candidates, we used an in vitro screening cascade, in which the compounds were first screened against E. multilocularis metacestode vesicles via the phosphoglucose isomerase (PGI) assay, in which metacestode vesicle damage is assessed by the measurement of damage marker (PGI) release (Figure 1, see Section 2.6). […] Subsequently, compounds were assessed in concentration series on E. multilocularis metacestode vesicles via the PGI assay and on GL cell cultures via the CellTiter-Glo assay (see Section 2.9). The testing on mammalian cells as well as metacestode vesicles and GL cell cultures allowed the identification of a potential therapeutic window in vitro.
# PGI assays were conducted at the University of Bern as described previously. In short, two-to-three-month-old metacestode vesicles of two to four mm in diameter were purified using 2% sucrose followed by several washing steps in PBS. Purified metacestode vesicles were mixed with two volumes of DMEM without phenol red containing penicillin (100 U/mL) and streptomycin (100 µg/mL). […] Samples were measured on an EnSpire multilabel reader (Perkin Elmer, Waltham, MA, USA). […] Samples were measured on a HIDEX Sense microplate reader (Hidex, Turku, Finland). […]
smiles,measurement,setting,value
CCN(CC)C(=S)SSC(=S)N(CC)CC [Disulfiram],PGI assay (active / not active),,Not active
same,PGI assay (active / not active),listed as disulfiram,showed no effect
